{"source": "patent US20230331674A1", "about": "(priority 2020, published 2023)", "key": {"[1]": {"assay": "Metabolic stability in cryopreserved hepatocytes", "format": "in vitro ADME", "details": "both sexes, pH 7.3, human hepatocytes", "description": "Cryopreserved hepatocytes (mixed gender and pool of 10 or more) were thawed, washed, and resuspended in Krebs-Heinslet buffer (pH 7.3). […] The reaction was stopped by adding acetonitrile into the incubation mixture. Samples were then mixed, transferred completely to another 96-well plate, and centrifuged. Supernatants were used for HPLC-MS/MS analysis. As reference substances, four compounds were tested in each assay. Propranolol is relatively stable, whereas flurazepam, naloxone and 7-hydroxy-4-trifluoromethylcoumarin (HFC) are readily metabolized in human hepatocytes. In the HPLC-MS/MS analysis peak areas corresponding to the test compounds were recorded. Metabolic stability, expressed as percentage of the parent compound remaining, was calculated by comparing the peak area of the compound at the time point relative to that at time 0. The half-life (t1/2) was estimated from the slope of the initial linear range of the logarithmic curve of the compound remaining (%) versus time, assuming first order kinetics. The apparent intrinsic clearance (Clint in μL/min/million cells) was calculated from the half-life according to the following formula:\nClint=0.693/(t1/2×million cells/μL) (5)."}, "[2]": {"system": "cryopreserved human hepatocytes", "assay": "Metabolite identification in cryopreserved hepatocytes", "format": "in vitro ADME", "details": "120 min, HPLC-MS", "description": "Principal Phase I (oxidative) and Phase II (conjugative) metabolites have been detected and characterized following previously described procedure (Obach R. S. et al. J. Pharmacol. Exp. Ther. 1997, 283, 46-58). Briefly, the test compound 2 ([…]) was incubated at 37° C. in cryopreserved human hepatocytes (0.7 million cells/mL) for 120 min. Samples were taken at time 0 and the end of the incubation (2 h), respectively. A control sample (no test compound added) was also prepared and incubated for the same period of time. After the reaction was stopped by addition of acetonitrile, the supernatants were subjected to HPLC-MS analysis. Separation of analytes was achieved using Acquity HSS T3 column (100×2.1 mm, 1.8 μm, Waters). The sample solutions-supernatants (5 μL) were injected and eluted at a flow rate of 0.5 mL min-1, using a linear gradient of mobile phase A (0.1% formic acid in water) and mobile phase B (0.1% formic acid in MeCN). The gradient for mobile phase B was: 0-1.0 min, 5%; 1.0-7.0 min, 5%-80%; 7.0-7.5 min, 80%; 7.5-8.0 min, 80%-5%; 8.0-10.0 min, 5%. […] Retention times and the respective MS and MS/MS spectra of the species detected in the incubated sample and not in time-zero or blank sample were identified and recorded."}, "[3]": {"assay": "Plasma protein binding, equilibrium dialysis", "format": "in vitro ADME", "details": "pH 7.4, human plasma, 37° C.", "description": "The equilibrium dialysis technique was used to separate the fraction of the bound to human plasma protein. The assay was performed in a 96-well format in a dialysis block constructed from Teflon to minimize the unspecific binding (Banker M. J. et al. J. Pharm. Sci. 2003, 92, 967-974). Plasma from human was used as the default protein containing matrix. […] Acebutolol, quinidine and warfarin were tested in each assay as reference compounds, which yield protein binding that represent low, medium and high bindings to human plasma proteins, respectively. The dialysate compartment was loaded with the phosphate buffered saline (PBS, pH 7.4), and the sample side was loaded with equal volume of the spiked protein matrix. The dialysis plate was then sealed and incubated at 37° C. for 4 h. A control sample (n=2) was prepared from the spiked protein matrix in the same manner as the assay sample (without dialysis). The control sample served as the basis for the recovery determination. After the incubation, samples were taken from each compartment, diluted with phosphate buffer followed by addition of acetonitrile and centrifugation. The supernatants were then used for HPLC-MS/MS analysis using selected reaction monitoring. […]\nThe recovery determination serves as an indicator of reliability of the calculated protein binding value. […]"}, "[4]": {"system": "SH-SY5Y cells treated with Aβ(1-42)", "assay": "Neuroprotective effect against Aβ(1-42) cytotoxicity, propidium iodide flow cytometry", "format": "cell-based, human", "details": "5 μM Aβ(1-42), 48 h", "description": "SH—SY5Y cells were seeded into a 24-well culture plate (1.2×10^5/well) and next day, treated as described above. After 48 h treatment, cells were washed with pre-warmed PBS and further stained with PI solution (30 μM) for 15 min at 37° C. Cells were then analyzed for cytotoxicity by flow cytometry on FACS Calibur (BD Bioscience, San Jose, CA, USA). The percentage of PI positive cells (PI^pos) was evaluated using FlowJo software (Ashland, OR, USA) and results are presented as a relative fold increase of PI^pos corresponding vehicle treatment (DMSO control)."}}, "data": [{"smiles": "COCCN(CC1CCCN(Cc2ccccc2)C1)S(=O)(=O)c1ccc2ccccc2c1", "note": "(racemic) [(±)-N-((1-benzylpiperidin-3-yl)methyl)-N-(2-methoxyethyl)naphthalene-2-sulfonamide]", "values": [{"measurement": "half-life at 1 μM", "setting": "[1]; 0.7 million viable cells per mL, read-out: In vitro half-life in cryopreserved hepatocytes", "value": 54, "unit": "min"}, {"measurement": "hepatocyte CLint at 1 μM", "setting": "[1]; read-out: Hepatocyte clearance (Clint)", "value": 18.2, "unit": "µL/min/1e6 cells"}, {"measurement": "Possible metabolites", "setting": "[2]", "value": "N-debenzylated, demethylated, and a demethylated+glucoronide products"}, {"measurement": "fraction unbound at 4 h, 10 μM", "setting": "[3]", "value": 0.04}, {"measurement": "Neuroprotective effect against Aβ(1-42) toxicity", "setting": "[4]; compound 1-10 μM", "value": "clear dose-response neuroprotective effect"}, {"measurement": "Effect on Aβ(1-42)-induced cell death", "setting": "[4]; compound at 10 μM", "value": "reversed Aβ(1-42)-induced cell death"}]}]}
